Results reported in patent publication US12492337B2, “Fluorescent probe, preparation method therefor and use thereof” (FLUORESCENCE DIAGNOSIS (SHANGHAI) BIOTECH COMPANY, priority 2017, dated 2025).

Legend:
HaloTag protein tag = assay: Probe mixed with HaloTag protein tag, fluorescence spectrophotometer (Example 86); type: biochemical; conditions: 5 μM probe, 10 μM protein tag, 37° C., 1 hour; for Fluorescence enhancement: fluorescence activation multiple after binding protein tag; for Emission/nm: fluorescence emission wavelength
Procedure: (§1) A probe was mixed with a corresponding HaloTag protein tag to obtain a mixed sample. The final concentration of the probe in the mixed sample was 5 μM and the final concentration of the protein tag was 10 μM. The mixed sample was incubated at 37° C. for 1 hour, and the sample was detected using a fluorescence spectrophotometer.

[1] = Quantum yield of free probe not reacted with protein tag; type: physicochemical
Procedure: as §1

[2] = Viscosity responsiveness: fluorescence intensity in glycerol versus methanol; type: physicochemical; conditions: fluorescence intensity in glycerol to that in methanol
Procedure: The above-mentioned viscosity-responsive fluorescent dye means that the fluorescence intensity of the dye responds to the viscosity of the solution. As the viscosity of the solution increases, the fluorescence intensity increases. Optionally, the viscosity-responsive fluorescent dye is an organic dye molecule which, under the same concentration and excitation wavelength, at 25° C. has a ratio • of the maximum fluorescence emission intensity of the dye in glycerol to the fluorescence intensity in methanol of greater than 2, optionally greater than 5, optionally greater than 10. The concentration of the viscosity-responsive dye ranges from 1×10^−7 M to 1×10^−5 M.

Row | Compound | The quantum yield after binding to Halo-tag (HaloTag protein tag) | Emission/nm (HaloTag protein tag) [nm] | The quantum yield of the free probe [1] | ratio [2] | Fluorescence enhancement (HaloTag protein tag)
1 | CN(CCOC(=O)NCCOCCOCCCCCCCl)c1ccc2nc(/C=C(\C#N)c3nc4ccccc4o3)ccc2c1 [Probe 27] | 0.43 | 620 | <0.001 | 1134 | 665
2 | COCCNC(=S)/C(C#N)=C/c1cc2c(s1)-c1sc(N(C)CCOC(=O)NCCOCCOCCCCCCCl)cc1[Si]2(C)C [Probe 54] | 0.41 | 710 | <0.001 | 391 | 498
3 | CN(CCOC(=O)NCCOCCOCCCCCCCl)c1ccc(-c2ccc(/C=C(\C#N)C(=O)O)s2)cc1 [Probe 35] | 0.45 | 618 | 0.0012 | 972 | 433
4 | CN(CCOC(=O)NCCOCCOCCCCCCCl)c1ccc2nc(/C=C(\C#N)c3nc4ccccc4s3)oc2c1 [Probe 23] | 0.52 | 637 | <0.001 | 1235 | 712
5 | CN(CCOC(=O)NCCOCCOCCCCCCCl)c1ccc2nc(/C=C(\C#N)C(=O)O)oc2c1 [Probe 21] | 0.48 | 628 | <0.001 | 1481 | 560
6 | CC(C)(C)OC(=O)/C(C#N)=C/c1ccc(N(CCO)CCOC(=O)NCCOCCOCCCCCCCl)cc1 [Probe 4] | 0.42 | 480 | <0.001 | 562 | 490
7 | CN(CCOC(=O)NCCOCCOCCCCCCCl)c1cc2sc(/C=C(\C#N)C(=O)OC(C)(C)C)cc2s1 [Probe 10] | 0.42 | 550 | <0.001 | 655 | 431
8 | CN1C(=O)/C(=C/c2nc3ccc(N(C)CCOC(=O)NCCOCCOCCCCCCCl)cc3o2)N=C1c1ccccc1 [Probe 22] | 0.36 | 632 | <0.001 | 1821 | 610
9 | CN(CCOC(=O)NCCOCCOCCCCCCCl)c1ccc2nc(/C=C(\C#N)C(=O)OC(C)(C)C)oc2c1 [Probe 19] | 0.53 | 625 | 0.0012 | 299 | 561

Second part, led by results:

Row | The quantum yield after binding to Halo-tag (HaloTag protein tag) | Emission/nm (HaloTag protein tag) [nm] | The quantum yield of the free probe [1] | ratio [2] | Compound | Fluorescence enhancement (HaloTag protein tag)
10 | 0.41 | 660 | <0.001 | 452 | CN(C)c1cc2c(s1)-c1sc(/C=C3\SC(=O)N(CCOCCOCCCCCCCl)C3=O)cc1C2(C)C [Probe 78] | 369
11 | 0.54 | 545 | <0.001 | 752 | N#C/C(=C\c1ccc2c(c1)SCCN2CCOC(=O)NCCOCCOCCCCCCCl)c1nc2ccccc2o1 [Probe 45] | 958
12 | 0.47 | 670 | <0.001 | 270 | COCCNC(=S)/C(C#N)=C/c1cc2c(s1)-c1sc(N(C)CCOC(=O)NCCOCCOCCCCCCCl)cc1C2(C)C [Probe 52] | 435
13 | 0.53 | 637 | <0.001 | 358 | CN(CCOC(=O)NCCOCCOCCCCCCCl)c1cc2c(s1)-c1sc(/C=C(\C#N)C(=O)O)cc1C2(C)C [Probe 50] | 416
